# According to PubChem BioAssay AID367 (MTDP, 2006):
# Activity calls are given as the source filed them. The rule behind the calls is not given here.
# Target: Gag-Pol polyprotein (Human immunodeficiency virus type 2 subtype A (isolate ROD)) (UniProt P04584)
# Assay: Reverse transcriptase ribonuclease H inhibitors, biochemical concentration-response (AID 367)
# Conditions: HIV-2 RNase H, FRET RNA/DNA substrate cleavage
# Gag-Pol polyprotein (Human immunodeficiency virus type 2 subtype A (isolate ROD)), sequence (P04584 whole entry, looked up): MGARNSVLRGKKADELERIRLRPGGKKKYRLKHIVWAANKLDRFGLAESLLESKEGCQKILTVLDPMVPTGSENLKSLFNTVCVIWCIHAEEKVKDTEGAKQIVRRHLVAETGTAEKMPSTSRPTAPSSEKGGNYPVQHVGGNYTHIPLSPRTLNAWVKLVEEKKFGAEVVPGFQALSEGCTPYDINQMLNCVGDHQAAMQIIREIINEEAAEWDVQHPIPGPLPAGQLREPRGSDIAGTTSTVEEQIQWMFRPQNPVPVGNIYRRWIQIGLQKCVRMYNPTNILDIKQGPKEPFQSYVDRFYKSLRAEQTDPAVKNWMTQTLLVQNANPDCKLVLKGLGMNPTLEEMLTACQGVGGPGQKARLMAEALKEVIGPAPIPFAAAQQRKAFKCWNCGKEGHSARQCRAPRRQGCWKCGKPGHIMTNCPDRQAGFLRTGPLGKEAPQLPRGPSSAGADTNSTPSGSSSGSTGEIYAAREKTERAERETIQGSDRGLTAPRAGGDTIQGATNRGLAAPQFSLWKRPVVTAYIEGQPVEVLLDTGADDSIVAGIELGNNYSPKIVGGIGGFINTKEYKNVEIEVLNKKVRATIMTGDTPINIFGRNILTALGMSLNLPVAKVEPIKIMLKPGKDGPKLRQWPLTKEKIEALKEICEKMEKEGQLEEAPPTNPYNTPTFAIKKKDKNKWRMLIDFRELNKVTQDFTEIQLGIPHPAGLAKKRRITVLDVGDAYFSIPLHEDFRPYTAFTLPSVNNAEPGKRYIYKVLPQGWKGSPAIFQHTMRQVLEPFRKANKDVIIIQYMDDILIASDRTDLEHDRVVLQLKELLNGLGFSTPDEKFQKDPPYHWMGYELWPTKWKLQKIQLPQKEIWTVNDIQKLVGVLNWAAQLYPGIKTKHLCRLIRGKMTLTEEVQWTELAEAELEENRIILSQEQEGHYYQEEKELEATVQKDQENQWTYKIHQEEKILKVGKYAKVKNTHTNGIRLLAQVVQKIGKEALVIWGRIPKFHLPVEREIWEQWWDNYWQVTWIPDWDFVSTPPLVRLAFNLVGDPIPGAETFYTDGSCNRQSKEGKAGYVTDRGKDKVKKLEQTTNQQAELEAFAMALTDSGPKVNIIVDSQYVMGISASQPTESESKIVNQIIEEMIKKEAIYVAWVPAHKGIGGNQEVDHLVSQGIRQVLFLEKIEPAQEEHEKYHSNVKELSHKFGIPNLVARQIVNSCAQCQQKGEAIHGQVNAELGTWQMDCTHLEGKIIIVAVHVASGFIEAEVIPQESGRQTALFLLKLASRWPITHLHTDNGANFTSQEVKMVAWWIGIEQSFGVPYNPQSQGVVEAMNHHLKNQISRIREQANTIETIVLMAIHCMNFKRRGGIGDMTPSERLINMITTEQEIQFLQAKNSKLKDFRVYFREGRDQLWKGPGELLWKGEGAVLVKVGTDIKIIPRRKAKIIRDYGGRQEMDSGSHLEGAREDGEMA
row,SMILES,IC50
1,COc1cc(/C=N\c2sc3c(c2C(=O)NCc2ccccc2)CCCC3)cc(Cl)c1O,2800 nM
2,Cc1ccccc1-n1c(O)c(C=C2C=CC=N2)c(=O)[nH]c1=S,inactive
3,C=C/C(C)=C/C[C@]1(C)[C@H](C)CC[C@@]23C(=C[C@H](OC(=O)c4ccc(O)c(OC)c4)C[C@@H]12)[C@@H](OC(C)=O)O[C@H]3OC(C)=O,inactive
4,O=C1/C(=C/c2ccc(O)c(O)c2)SC(=S)N1c1ccc(O)cc1,2600 nM
5,CN(C)CS/C(N)=N/C(O)C(Cl)(Cl)Cl (configuration not stated),6000 nM
6,NCC[Se][Se]CCN,2000 nM
7,Cc1ccc(C=C2C(=O)NC(=S)N(c3ccccc3Cl)C2=O)o1,inactive
8,O=c1[nH]c2[nH]c(=S)[nH]c(=S)c2[nH]1,4000 nM
9,Cc1ccc(C(=O)Nc2sc(C)c(C)c2C(N)=O)cc1,800 nM
10,O=c1oc2ccccc2c(O)c1/C=C1\C=Nc2ccccc21,5000 nM
11,COc1ccc(-c2nc3sc(-c4ccc(OC)cc4)nc3s2)cc1,2900 nM
12,CCOc1ccc(N2C(=O)/C(=C/c3ccc(Br)o3)C(=O)NC2=S)cc1,900 nM
13,Nc1c(S(=O)(=O)O)cc(Nc2cccc(S(N)(=O)=O)c2)c2c1C(=O)c1ccccc1C2=O,4000 nM
14,Cc1ccc(-c2c(C#N)c(SCC(=O)c3ccc(O)c(O)c3)nc3c2CCCC3)o1,1500 nM
15,CC(=O)C1=C(O)[C@@]2(O)C(=O)c3c(c(C)c4ccc(C)c(O)c4c3O)C[C@H]2[C@@H](N)C1=O,4400 nM
16,C=CCn1c(N)c(-c2nc3ccccc3[nH]2)sc1=S,3900 nM
17,CCC(=O)Nc1sc2c(c1C(=O)Nc1ccc(OC)cc1)CCCCC2,inactive
18,Cc1cc(Br)ccc1N1C(=O)/C(=C/c2ccco2)C(=O)NC1=S,4000 nM
19,Cc1cc(I)c2c(c1)C1C=CCC1C(C(=O)O)N2 (configuration not stated),> 100000 nM (inactive)
20,Nc1ccc(S(=O)(=O)O)c2cccc(O)c12,inactive
21,CCOC(=O)Oc1c(OC)cc(C(=O)O[C@@H]2C[C@@H]3CN4CCc5c([nH]c6cc(OC)ccc56)[C@H]4C[C@@H]3[C@H](C(=O)OC)[C@H]2OC)cc1OC,> 100000 nM (inactive)
22,FC(F)(F)c1nc2ccc(SSc3ccc4nc(C(F)(F)F)[nH]c4c3)cc2[nH]1,600 nM
23,CC(C)c1cccc(O)c(=O)c1,> 100000 nM (inactive)
24,Cc1cc(O)c2c(c1O)C(=O)C13C(=C2O)C(=O)C2C(O)C1C1C(O)C3C(=O)C3=C(O)c4c(O)cc(C)c(O)c4C(=O)C321 (configuration not stated),8200 nM
25,O=C(N/N=C/c1ccccc1Cl)c1cc(O)c(O)c(O)c1,800 nM

row,SMILES,IC50
1,Cc1sc(NC(=O)Cc2ccccc2)c(C(N)=O)c1C,9000 nM
2,O=[N+]([O-])c1ccc(S(=O)(=O)Cc2ccccc2)c2nonc12,5000 nM
3,Cc1ccc(C)n1-c1ccc(Br)cc1C(=O)O,inactive
4,CCCc1cc(=O)oc2c3c(c4c(c12)OC(C)(C)C=C4)O[C@@H](C)[C@H](C)[C@@H]3F,inactive
5,COC(=O)c1cc2c3c(ccc2[nH]1)N(C(=O)c1cc2c4c(ccc2[nH]1)N(C(=O)c1cc2c5c(ccc2[nH]1)N(C(N)=O)CC5)CC4)CC3,8100 nM
6,O=C1C=C/C(=N\S(=O)(=O)c2cc(Cl)ccc2Cl)C=C1Cl,2000 nM
7,Oc1c(Br)cc(/C=N/Nc2nnc3c(n2)[nH]c2ccccc23)c(Br)c1O,2300 nM
8,N#C/C(=C\Nc1ccc(S(=O)(=O)Nc2nccs2)cc1)c1nc(-c2ccc(Cl)cc2)cs1,4100 nM
9,COc1cc(C)cc2c(-c3c(O)cc(O)c4c3C[C@@H](C)N[C@@H]4C)cc(-c3cc(-c4c(O)cc(O)c5c4C[C@@H](C)N[C@@H]5C)c4cc(C)cc(OC)c4c3O)c(O)c12,2100 nM
10,CCOc1ccc(N2C(=O)/C(=C/c3ccc(I)o3)C(=O)NC2=S)cc1,2000 nM
11,Cc1sc(NC(=O)C2CCCO2)c(C(N)=O)c1C (configuration not stated),4300 nM
12,O=C1c2ccccc2C(=O)c2c(O)c(O)cc(O)c21,5000 nM
13,C=C(CCC(C(=O)O)C1CCC2(C)C3=C(CCC12C)C1(C)CCC(O)C(C)(C)C1CC3)C(C)C (configuration not stated),inactive
14,O=[N+]([O-])c1cc(Cc2cc([N+](=O)[O-])c3cccnc3c2O)c(O)c2ncccc12,2800 nM
15,Ic1ccc2c(c1)N(c1ccccc1)c1cc(N=c3ccc4nc5ccc(I)cc5n(-c5ccccc5)c-4c3)ccc1N2,2000 nM
16,COc1ccc(-c2c(C#N)c(N)nc(SCC(=O)c3ccc(O)c(O)c3)c2C#N)cc1,700 nM
17,O=C(CSc1nc2ccccc2s1)c1sc2sc3ccccc3[n+]2c1[O-],1900 nM
18,C[C@]12Cc3cnc(-c4ccccc4)nc3C[C@@H]1CC[C@@H]1[C@@H]2CC[C@@]2(C)[C@H]1CC[C@]2(C)O,inactive
19,O=C1c2cc([N+](=O)[O-])ccc2-c2ccc3c4ccc5c6c(ccc(c7ccc1c2c73)c64)C(=O)c1cc([N+](=O)[O-])ccc1-5,4000 nM
20,O=C(O)C1Nc2c(Cl)cc(Cl)cc2C2C=CCC12 (configuration not stated),inactive
21,Oc1ccc(/C=N/Nc2nncc(-c3ccccc3)n2)c(O)c1O,1100 nM
22,Cc1ccc(C)n1-c1ccc(O)c(C(=O)O)c1,1600 nM
23,Cc1c(O)c(Br)c(C)c(O)c1Br (tested in a mixture with another compound),700 nM
24,O=S(=O)(O)c1cc(N=[N+]([O-])c2cc(S(=O)(=O)O)c3ccccc3c2)cc2ccccc12,inactive
25,Cc1ccc(C2COc3cc(O)c(O)cc3C2)cc1 (configuration not stated),600 nM

row,SMILES,IC50
1,O=c1c(O)c(-c2ccc(O)c(O)c2)oc2cc(O)cc(O)c12,9000 nM
2,O=C1C=CC(=O)c2c(O)cccc21,3100 nM
3,O=[N+]([O-])c1ccc2c(N=Nc3ccc4ccccc4c3O)c(O)cc(S(=O)(=O)O)c2c1,2200 nM
4,CC(C)=CCC[C@]1(C)[C@@H](CC=C(C)C)C[C@@]2(CC=C(C)C)C(=O)/C(=C(\O)c3ccc(O)c(O)c3)C(=O)[C@]1(CC=C(C)C)C2=O,4800 nM
5,O=C1NC(=S)N(c2ccccc2F)C(=O)C1=Cc1ccco1,2600 nM
6,Cc1onc(-c2ccccc2)c1C(=O)Nc1sc(C)c(C)c1C(N)=O,inactive
7,N#Cc1c(N)nc(SCC(=O)c2ccc(O)c(O)c2)c(C#N)c1-c1ccc(O)cc1,430 nM
8,CC1=C(C)CC(C(=O)Nc2ccc(N3C(=O)c4ccccc4C3=O)cc2)C(C(=O)O)C1 (configuration not stated),> 100000 nM (inactive)
9,O=C1/C(=C/c2ccco2)C(=O)N(c2ccc(Br)cc2)C(=S)N1c1ccccc1,inactive
10,O=C1NC(=S)N(c2ccc(Cl)cc2)C(=O)/C1=C/c1ccc(Br)o1,1700 nM
11,O=C1C=CC2=C3c4cc(O)c(O)cc4CC3(O)COC2=C1O (configuration not stated),1700 nM
12,COc1cccc(-c2nc3cc(NC(=O)/C=C\c4ccccc4)ccc3o2)c1,9200 nM
13,O=C1NC(=S)S/C1=C/c1cccc(OCc2ccc(Cl)c(Cl)c2)c1,7300 nM
14,C[C@]12CC[C@H]3[C@@H](CCC4=CC(=O)CC[C@@]43C)[C@@H]1CC[C@@H]2C(=O)COS(=O)(=O)c1ccc(Br)cc1,7100 nM
15,Cc1nn(CC(=O)Nc2sc(C)c(C)c2C(N)=O)c(C)c1[N+](=O)[O-],4300 nM
16,C[C@H]1[C@H](O)c2c(c3c(c4c(-c5ccccc5)cc(=O)oc24)OC(C)(C)C=C3)O[C@@H]1C,inactive
17,O=C(O)C1CCCCC1c1c2ccc(=O)c(O)c-2oc2c(O)c(O)ccc12 (configuration not stated),600 nM
18,CC(C)OC(=O)c1cc(O)c(O)c(O)c1,8000 nM
19,CCCCCCCCCCCCCCCCCCOCC(O)CO (configuration not stated),> 100000 nM (inactive)
20,O=C1c2ccccc2C(=O)c2c(NC3CCCCC3)ccc(Nc3ccc(S(=O)(=O)O)cc3)c21,4800 nM
21,O=C1c2ccccc2C(=O)N1c1ccc(-c2nc3ccc(N4C(=O)c5ccccc5C4=O)cc3[nH]2)cc1,1700 nM
22,CN1CC(O)C2=CC(=O)C(=O)C=C21 (configuration not stated),4000 nM
23,O=C1C=C(NCCc2cc(Br)c(O)c(Br)c2)C(=O)c2ncccc21,1700 nM
24,CC1=c2c(oc3cc(O)c(Nc4c(C)cc(O)cc4O)c(C)c23)=CC(=O)C1=Nc1c(C)cc(O)cc1O,2000 nM
25,Cc1sc(NC(=O)c2ccco2)c(C(N)=O)c1C,5000 nM

row,SMILES,IC50
1,Cc1cc(-c2ccco2)c(C#N)c(SCC(=O)c2ccc(O)c(O)c2)n1,800 nM
2,COc1cc([C@@H]2c3cc4c(cc3C[C@H]3COC(=O)[C@@H]32)OCO4)cc(OC)c1O,inactive
3,CC(C)=Cc1cc(CCC/C(C)=C/Cc2c(O)cc(C)c(C(=O)O)c2O)co1,5700 nM
4,c1ccc(C(c2cccc3c2ccc2ccccc23)C(c2ccccc2)c2cccc3c2ccc2ccccc23)cc1 (configuration not stated),inactive
5,CC1=NN(c2ccc(S(N)(=O)=O)cc2)C(=O)/C1=C/c1ccc(-c2ccc(Cl)cc2Cl)o1,3600 nM
6,Cc1cc(C)c2c(=O)[nH]c(SCC(=O)c3ccc(O)c(O)c3)nc2n1,3000 nM
7,O=C1c2ccc(O)cc2C(=O)c2c1ccc(O)c2O,2000 nM
8,O=C(O)c1cc(-c2ccc(/C=C3/Sc4ccccc4C3=O)o2)ccc1O,3300 nM
9,O=c1c(O)c(-c2cc(O)c(O)c(O)c2)oc2cc(O)cc(O)c12,3000 nM
10,Cc1cccc(NC(=O)c2c(NC(=O)c3ccc([N+](=O)[O-])cc3)sc3c2CCCC3)c1,2700 nM
11,O=S(=O)(Nc1cccc(C(F)(F)F)c1)c1ccc2ccccc2c1,inactive
12,O=C1O/C(=C(/C(=O)O)c2ccc(O)cc2)C(O)=C1c1cc2c3c(c(O)cc(C4=C(O)/C(=C(\C(=O)O)c5ccc(O)cc5)OC4=O)c3c1)OC2=O,1400 nM
13,CCc1c(O)c2c(c(O)c1C(C)=O)C(=O)c1c(cc(O)c(C(=O)O)c1C(=O)O)C2=O,3500 nM
14,O=C1C=CC(=O)C(c2cccc(Cl)c2)=C1,1100 nM
15,CC1=C(CCC(=O)O)c2cc3nc(cc4[nH]c(cc5[nH]c(cc1n2)c(C)c5C(C)O)c(C)c4C(C)O)C(C)=C3CCC(=O)O (configuration not stated),1700 nM
16,CCOc1ccc(C(=O)Nc2ccc3c(c2)C(=O)c2ccccc2C3=O)cc1,4300 nM
17,Cc1cc(=O)c2c(O)c3c(O)cc(O)c4c5c(O)cc(O)c6c(O)c7c(=O)cc(C)c8c1c2c(c34)c(c65)c78,inactive
18,O=c1c(O)cccc2cc(O)c(O)c(O)c12,1300 nM
19,O=C1/C(=C\c2ccc(O)c(O)c2)SC(=S)N1c1cccc(Cl)c1,6600 nM
20,NC(=O)c1c(NC(=O)CCc2ccccc2)sc2c1CCCCCC2,1700 nM
21,O=C(O)CCc1c2ccc(=O)c(O)c-2oc2c(O)c(O)ccc12,600 nM
22,C=Cc1c(C)c2cc3[nH]c(cc4nc(cc5nc(cc1[nH]2)C(C)=C5CCC(=O)O)C(CCC(=O)O)=C4C)c(C)c3C=C,1700 nM
